Measured values reported in paper PMC8348236, “Improving the Utility of a Dynorphin Peptide Analogue Using Mannosylated Glycoliposomes” (International Journal of Molecular Sciences, 2021).

How the values were obtained:
[1] = female BALB/c mice, intranasal, 2.0 µg, 20 min; average ± SD of 5 mice
[2] = peptide without delivery system; cited from earlier work
Description: Initially, the ability of DS1 and DS2 to entrap and protect dynantin from proteolytic degradation in human plasma ex vivo was compared (Figure 3A).

in vivo = conditions: female, BALB/c, mouse, inhaled or intranasal, 2 ug
KOR [3] = target: T1, KOR (Mus musculus, UniProt P33534); assay: In vitro dopamine modulation in fresh mouse striatum homogenates; conditions: mouse (C57BL/6) striatal homogenate, 90 min, 4 °C in the dark, LC/MS, average ± SD, n = 5, PBS control 0.54 ± 0.07
Description: The gently homogenized tissue was treated with either PBS or dynantin at 1 and 10 µM concentrations for 90 min, after which dopamine levels were analyzed.
Striatal tissue was collected from the brains of sacrificed mice (n = 15), gently homogenized and then treated with either PBS (60 µL, n = 5) or dynantin in PBS at a concentration of either 1 µM (60 µL, n = 5) or 10 µM (60 µL, n = 5) for 90 min at 4 °C in the dark. Dopamine was extracted and its levels analyzed by LC/MS in the presence of 0.1% formic acid.
Analyses were performed using an Acquity Class H UPLC system with an Acquity QDa detector (Waters Limited, Mississauga, ON, Canada). Separations took place on an Acquity UPLC BEH C18 column, 1.7 µm, 100 mm × 2.1 mm(Waters Limited, Mississauga, ON, Canada), and were achieved using a binary gradient elution (Table 3) of water and acetonitrile (both with 0.1% formic acid, v/v) and a uniform flow rate of 0.4 mL/min. […]
Male C57BL/6 mice (n = 15) were sacrificed by CO2 asphyxiation and cervical dislocation. […] The amount of dopamine extracted was analyzed via LC/MS (5 µL injections) and quantified using the dopamine: dopamine-D2 peak area ratio and a standard curve that was generated using increasing concentrations of dopamine in the presence of a set concentration of the dopamine-D2 internal standard. […]

KOR [4] = target: T1, KOR; assay: In vivo striatal dopamine modulation after intranasal administration; conditions: female BALB/c mice, 2.0 µg dynantin, 20 min after administration, LC/MS, average ± SD of 5 mice
Description: The ability of the glycoliposome delivery systems to improve both the delivery and activity of dynantin in the brain was studied in an in vivo mouse model. Female BALB/c mice (5 per group) were intranasally administered dynantin (2.0 µg dose) alone or entrapped in either DS1 or DS2. Mice were sacrificed 20 min later and blood (sera), lungs and brains were collected. […] Striatum tissue was immediately removed and neurotransmitter levels analyzed by LC/MS.
Dynantin (2.0 µg total dose) was administered intranasally to female BALB/c mice (5 per group) either alone or entrapped with DS1 or DS2 (1:5 ratio of peptide: particles). The mice were euthanized 20 min after administration and the lung, brain, and blood (sera) were collected. Brains were immediately dissected on ice to obtain striatum tissue from which dopamine was extracted and its levels analyzed by LC/MS in the presence of 0.1% formic acid (A). […]
For each mouse, blood was placed in sera tubes, which were spun at 10,000 rpm for 5 min and sera collected. […] The amount of dopamine extracted was analyzed via LC/MS (5 µL injections) and quantified using the dopamine: dopamine-D2 peak area ratio and a standard curve that was generated using increasing concentrations of dopamine in the presence of a set concentration of the dopamine-D2 internal standard. […]

T1 sequence (P33534 whole entry): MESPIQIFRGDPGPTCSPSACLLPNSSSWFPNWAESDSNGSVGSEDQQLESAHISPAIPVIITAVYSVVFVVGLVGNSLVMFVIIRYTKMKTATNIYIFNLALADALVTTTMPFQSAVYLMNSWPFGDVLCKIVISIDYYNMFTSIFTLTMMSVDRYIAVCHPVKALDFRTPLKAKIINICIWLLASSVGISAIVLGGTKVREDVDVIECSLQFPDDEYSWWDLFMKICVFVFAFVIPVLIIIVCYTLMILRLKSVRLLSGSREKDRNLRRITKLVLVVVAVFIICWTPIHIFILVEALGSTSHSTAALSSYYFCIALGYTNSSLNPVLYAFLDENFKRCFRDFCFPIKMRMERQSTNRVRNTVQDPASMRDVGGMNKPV

## CC[C@H](C)[C@H](NC(=O)[C@H](CCCNC(=N)N)NC(=O)[C@H](CCCNC(=N)N)NC(=O)[C@H](CC(C)C)NC(=O)[C@H](Cc1ccccc1)NC(=O)CNC(=O)CNC(=O)[C@@H](C)Cc1c(C)cc(O)cc1C)C(=O)N[C@@H](CCCNC(=N)N)C(=O)N1CCC[C@H]1C(=O)N[C@@H](CCCCN)C(N)=O [Dynantin]
[1]
  percentage of total dose recovered, Brain: 8.15 ± 3.06%
  percentage of total dose recovered, Lung: 4.93 ± 0.89%
  percentage of total dose recovered, Sera: 21.66 ± 3.99%
[2]
  time to rapid and complete degradation in human plasma: ≤ 12 h
In vivo; brain (remaining tissue after removal of striatum)
  tissue level at time at 20 min: 560 ± 200 ng/g
In vivo; lung
  tissue level at time at 20 min: 560 ± 120 ng/g
In vivo; serum
  level at 20 min: 1300 ± 160 ng/mL
KOR [3]; 1 µM in PBS
  striatal dopamine level, 1 µM dynantin: 0.78 ± 0.10 ng/mg
KOR [3]; 10 µM in PBS
  striatal dopamine level, 10 µM dynantin: 0.98 ± 0.09 ng/mg
KOR [4]
  striatal dopamine level in vivo: 0.58 ± 0.05 ng/mg
